Read-outs that look alike come from different tables or passages of the source.
Legend:
insulin glargine [1] = biological target: T1, insulin glargine (Homo sapiens, UniProt P01308, INS54RR/N110G); test: Precipitation of hydrophobized anionic molecule/insulin glargine/prandial insulin compositions in PBS/BSA (examples B15-B17); assay type: physicochemical
T1 construct: substitution of asparagine residue A21 with a glycine residue; elongation of the C-terminal of the B chain of human insulin with two arginine residues; purchased SANOFI-AVENTIS (Lantus®); ELI LILLY (Humalog®)
Experimental: The PBS/BSA mixture simulates the composition of the subcutaneous medium.
(§1) Centrifugation at 4000 rpm is carried out in order to separate the precipitate from the supernatant. The insulin glargine is then assayed in the supernatant by RP-HPLC.
This composition is added to 2 ml of PBS containing 20 mg/ml of BSA. The PBS/BSA mixture simulates the composition of the subcutaneous medium. […] Centrifugation at 4000 rpm is carried out in order to separate the precipitate from the supernatant. The insulin glargine is then assayed in the supernatant by RP-HPLC.

[2] = biological target: insulin glargine and prandial insulin (Homo sapiens, UniProt P01308, INS54RR/N110G)
Experimental: 0.25 ml of the insulin glulisine solution of example B3 is added to 0.75 ml of the solution of hydrophobized anionic molecule AA1/insulin glargine prepared according to the protocol described in example B6(a), so as to form 1 ml of a composition at pH 7. […] This clear solution is filtered through a 0.22 μm filter and then placed at +4° C.
0.25 ml of the insulin lispro solution of example B2 is added to 0.75 ml of the solution of hydrophobized anionic molecule AA1/insulin glargine prepared according to the protocol described in example B6(a), so as to form 1 ml of a composition at pH 7. […] This clear solution is filtered through a 0.22 μm filter and then placed at +4° C.
0.25 ml of the insulin aspart solution of example B1 is added to 0.75 ml of the solution of hydrophobized anionic molecule AA1/insulin glargine prepared in example B6(a), so as to form 1 ml of a composition at pH 7. […] This clear solution is filtered through a 0.22 μm filter and then placed at +4° C.
0.4 ml of the insulin lispro solution of example B2 is added to 0.6 ml of the solution of hydrophobized anionic molecule AA1/insulin glargine prepared in example 86(a), so as to form 1 ml of a composition at pH 7. […] This clear solution is filtered through a 0.22 μm filter and then placed at +4° C.
0.6 ml of the insulin lispro solution of example B2 is added to 0.4 ml of the solution of hydrophobized anionic molecule AA1/insulin glargine prepared in example B6(a), so as to form 1 ml of a composition at pH 7. […] This clear solution is filtered through a 0.22 μm filter and then placed at +4° C.
Compositions are prepared by mixing 0.75 ml of the hydrophobized anionic molecule AA1/insulin glargine solution prepared according to the protocol of example B6(a) with 0.25 ml of a prandial insulin, so as to form 1 ml of hydrophobized anionic molecule AA1/insulin glargine/prandial insulin composition (containing 7.5 mg/ml of hydrophobized anionic molecule AA1, 75 IU/ml of insulin glargine and 25 IU/ml of prandial insulin).

insulin glargine [3] = biological target: T1, insulin glargine; test: Precipitation of hydrophobized anionic molecule/insulin glargine composition in PBS/BSA mixture simulating the subcutaneous medium (examples B13, B14); assay type: physicochemical; settings: 1 ml composition (10 mg/ml molecule, 100 IU/ml insulin glargine) added to 2 ml PBS containing 20 mg/ml BSA
Experimental: 1 ml of the insulin glargine solution of example B4 is added to 2 ml of a solution of PBS (phosphate buffered saline) containing 20 mg/ml of BSA (bovine serum albumin). The PBS/BSA mixture simulates the composition of the subcutaneous medium.
Centrifugation at 4000 rpm is carried out in order to separate the precipitate from the supernatant. The insulin glargine is then assayed in the supernatant by reverse-phase liquid chromatography (RP-HPLC).
1 ml of hydrophobized anionic molecule AA1/insulin glargine solution prepared in example B6(a) is added to 2 ml of a solution of PBS containing 20 mg/ml of BSA. The PBS/BSA mixture simulates the composition of the subcutaneous medium.
as §1
Solubilization and precipitation tests identical to those described in examples B6 and B14 were carried out with other hydrophobized anionic molecules at the same concentration of 10 mg/ml of hydrophobized anionic molecule for 100 IU/ml of insulin glargine solution.

[4] = background statement on marketed insulins; cited from earlier work
insulin glargine [5] = biological target: T1, insulin glargine; settings: alone versus with the cyclodextrin, cited from earlier work
[6] = 7.5 mg/ml AA1, 75 IU/ml insulin glargine, 25 IU/ml prandial insulin, added to 2 ml PBS containing 20 mg/ml BSA
[7] = insulin glargine/insulin lispro 75/25 composition at pH 7, 1 ml added to 2 ml PBS containing 20 mg/ml BSA

T1 sequence (P01308 90-110 N110G limits assumed): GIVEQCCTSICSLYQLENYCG
T1 sequence (P01308 25-56 limits assumed, stated change not applied): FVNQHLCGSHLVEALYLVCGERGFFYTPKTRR

Row | Substance | Insulin glargine precipitation (insulin glargine [1]; [7]) | Insulin glargine precipitation (insulin glargine [3]) | also measured
1 | Human insulin (ActRapid ®): commercial 100 IU/ml solution of human insulin (NOVO NORDISK) [reference compound] | – | – | Insulin glargine precipitation (insulin glargine [1]; [6]): Yes; Solubilization of insulin glargine/prandial insulin 75/25 [2]: Yes
2 | Insulin aspart (NovoLog ®): commercial 100 IU/ml solution of insulin aspart, fast-acting insulin analog (NOVO NORDISK) [reference compound] | – | – | Insulin glargine precipitation (insulin glargine [1]; [6]): Yes; Solubilization of insulin glargine/prandial insulin 75/25 [2]: Yes
3 | Insulin glulisine (Apidra ®): commercial 100 IU/ml solution of insulin glulisine, fast-acting insulin analog (SANOFI-AVENTIS) [reference compound] | – | – | Insulin glargine precipitation (insulin glargine [1]; [6]): Yes
4 | Insulin lispro (Humalog ®): commercial 100 IU/ml solution of insulin lispro, fast-acting insulin analog (ELI LILLY) [reference compound] | – | – | Insulin glargine precipitation (insulin glargine [1]; [6]): Yes; Solubilization of insulin glargine/prandial insulin 75/25 [2]: Yes
5 | Sodium Maltooctaosemethylcarboxylate Functionalized with Cholesteryl Leucinate [AA5] | Yes | Yes | –
6 | Sodium Maltopentaosemethylcarboxylate Functionalized with Cholesteryl Leucinate [AA4] | Yes | Yes | –
7 | Sodium Maltotriosemethylcarboxylate Functionalized with 3,7-dimethyl-octanoyl Phenylalaninate [AA8] | Yes | Yes | –
8 | Sodium Maltotriosemethylcarboxylate Functionalized with (±)-α-tocopheryl Leucinate [AA9] | Yes | Yes | –
9 | Sodium Maltotriosemethylcarboxylate Functionalized with Cholesteryl 2-aminoethylcarbamate [AA7] | Yes | Yes | –
10 | Sodium Maltotriosemethylcarboxylate Functionalized with Cholesteryl Leucinate [AA1] | – | Yes | –
11 | Sodium Maltotriosemethylcarboxylate Functionalized with Cholesteryl Leucinate [AA3] | Yes | – | –
12 | Sodium Maltotriosemethylcarboxylate Functionalized with Dilauryl Aspartate [AA6] | Yes | Yes | –
13 | insulin glargine | – | – | duration of action / hypoglycemic effect [4]: 24 h; solubility of insulin glargine (insulin glargine [5]; pH 7.4, phosphate buffer): 5 µM; solubility of insulin glargine (insulin glargine [5]; pH 9.5): 750 µM
14 | sulfobutyl ether-β-cyclodextrin [SVE4-β-CYD] | – | – | solubility of insulin glargine (insulin glargine [5]; pH 7.4, phosphate buffer): 8 µM; solubility of insulin glargine (insulin glargine [5]; pH 9.5): 1250 µM
